How the values were obtained:
[1] = system: YEpFLAG-1-BAP (bacterial alkaline phosphatase) expression in yeast cells (BJ3505 strain); experiment: Recombinant FLAG-tagged secreted bacterial alkaline phosphatase synthesis in yeast (immuno test strips, dilution assays); assay type: cell-based, S. cerevisiae
Procedure: (§1) The stabilization of RNA by growth in thio-phosphate media can be used to enhance the protein synthesis of many proteins. The optimal level of thio-phosphate to phosphate must be determined as well absolute levels of total phosphate that are tolerable. Growth in all cases is enhanced by using enriched media prepared by depleting inherent phosphate. To deplete phosphate by precipitation, MgSO4 and ammonium hydroxide are added to the media of choice. YPD (1% Bacto-yeast extract, 2% Bacto-peptone, 2% Dextrose) phosphate depleted media is prepared by adding 10 ml of 1 M MgSO4 and 10 ml of concentrated NH4OH per liter and allowing the ppt. to form by leaving the solution at room temp. for 30 min. The media is then filtered and the pH readjusted to pH 6.5. Using this procedure, the detectable amount of ortho-phosphate remaining is less than ˜200 mg/liter. […] It is best to innoculate at high densities using, for example a 1:20 dilution. Insufficient innoculum (low density) will result in poor growth.
To test for optimal protein synthesis conditions the following system can be used: a recombinant YEp plasmid containing a secreted bacterial alkaline phosphatase gene (YEpFLAG-1-BAP, Sigma; U.S. Pat. Nos. 4,703,004, 4,782,137 EP Patent 150126, and JP Patent 1983150) marked with the FLAG™ peptide DYKDDDDK. […]

[2] = system: yeast actin mRNA; experiment: Northern analysis of actin mRNA in yeast grown in thio-phosphate media; assay type: cell-based, S. cerevisiae; details: 100% thio-phosphate substituted media; ~0.5 ug total RNA
Procedure: To maximize mRNA levels cells are grown in minimal media substituted with 100% thio-phosphate. Bacteria and yeast grow quite well in such media. For E. coli minimal media is prepared as follows: (Na3SPO3.XH2O) 10-15 g/L and KCL (1.5 g/L) (NH4)2SO4, 1 g/L; sodium citrate 2H2O, 0.5 g/L; Adjust pH to 7.4 and sterile filter. Then add the following: MgSO4.7H2O, 0.2 g/L (sterilized separately as a conc. solution); (thiamine HCL, 5 ug/L; glucose, 4 g/L sterilized separately by filtration). Glucose can also be sterilized by autoclaving separately. FeCl2 (500 ug/L) can also be added as needed. Thio-phosphate contains variable amounts of water (10-15 per molecule) not included in molecular weight calculations. It is almost 50% water by weight. Note pH control is important in maximizing thio-phosphate stability. […] When adapting to other bacteria determine the sensitivity of the organism to thio-phosphate levels. Optimize for KCL as this often is provided as a salt of normal phosphate. […]
(§2) The mRNA is in the size range expected for a mature mRNA in which the intron sequences have been removed (FIG. 1). […] The probe is hybridized according to S&S protocols and detected by chemilumescence using polaroid film. […] Extracellular nucleases are detected by monitoring the degradation of genomic DNA by gel electrophoresis.

[3] = system: Extracellular nucleases; experiment: Extracellular nuclease activity of yeast (degradation of genomic DNA by gel electrophoresis); assay type: cell-based
Procedure: (§3) An additional assay was developed to examine the effects of thio-phosphate media on the synthesis of secreted proteins. Yeast excrete many extracellular hydrolases and the mRNAs for […] adenine, histidine, leucine, lysine, and uracil (Sp, BIO101). Various S. cerevisiase strains are able to grow in minimal media containing thio-phosphate: multiploid fleischmann's yeast strain, haploid strain ATTC# 32119, and diploid strain BJ3505 (Sigma). The haploid strain Pichia canadensis ATTC# 14355 grew better with a yeast nitrogen based media (YNB, BIO 101) as opposed to EMM. Note that the optimal level of total phosphate for yeast is ˜1 g/L which is much less than that for bacteria. Again if necessary to improve growth use nutrient broths depleted of phosphate (see below).
The mRNA is in the size range expected for a mature mRNA in which the intron sequences have been removed (FIG. 1). […] The actin probe is prepared by amplification of yeast genomic DNA (act), YFL039C, Saccharomyces Genome Database http://genome-www2.standford.edu) with the following PCR primers: • SEQ ID NO. 1: 5′ GAGGTTGCTGCTTTGGTTATTG 3′ 22 bp • SEQ ID NO. 2: 5′ TTGTGGTGAACGATAGATGGAC 3′ 22 bp PCR cycling parameters using a BIO-RAD thermal cycler and Taq polymerase are as follows: initial denaturation at 94° C. for 4 min. followed by 33 cycles of denaturation at 94° C. for 30 sec, annealing at 45° C. for 30 sec, elongation at 72° C. for 3 min. followed by a final elongation at 72° C. for 7 min. […] Total RNA (˜0.5 ug) is separated on a 2% high resolving agarose gel and transferred to a neutral nylon membrane. The probe is hybridized according to S&S protocols and detected by chemilumescence using polaroid film. […] Extracellular nucleases are detected by monitoring the degradation of genomic DNA by gel electrophoresis.

[4] = system: lipase; experiment: Secreted lipase of yeast, qualitative assays; assay type: cell-based
Procedure: as §3
as §2, with “1). […] The actin probe is prepared by amplification of yeast genomic DNA (act), YFL039C, Saccharomyces Genome Database http://genome-www2.standford.edu) with the following PCR primers: • SEQ ID NO. 1: 5′ GAGGTTGCTGCTTTGGTTATTG 3′ 22 bp • SEQ ID NO.” for “1).”

[5] = system: pFLAG-ATS-BAP (bacterial alkaline phosphatase) expression in JM109; experiment: Bacterial expression of pFLAG-ATS-BAP, colormetric staining of whole cells (NBT/BCIP); assay type: cell-based, bacterial cells (JM109)
Procedure: Bacterial expression can be examined using the recombinant vector pFLAG-ATS-BAP (Sigma Chemical; U.S. Pat. Nos. 4,703,004, 4,782,137 EP Patent 150126, and JP Patent 1983150) marked with bacterial alkaline phosphatase and under the control of a tac/lac hybrid promoter induced by IPTG. This control plasmid is expressed in the periplasmic fraction by virtue of the N-terminal OmpA signal at high levels. Enzyme activity is easily visualized using colormetric staining of whole cells. 0.5 ml of cells are pelleted and resuspended in pH 9.5 buffer (0.1 M Tris-HCL, 0.1 M NaCL, 50 mM MgCl2) along with 10 ul of NBT (nitroblue tetrazolium, 50 mg/ml) and 5 ul of BCIP (5-bromo-4-chloro-3-indolylphosphate, 50 mg/ml). After sufficient time (there may be a slight delay in the activity of induced cells) the samples are compared and then centrifuged to compare pellets. Various ratios of modified phosphate to phosphate are examined: 0%, 10%, 15%, 20%, 25%, 30%, 40%, 50%, 60, 70%, 80%, 90% and 100%. […] To determine the optimal ratio a lower level of lactose is used in the media to prevent the formation of inclusion bodies during the analysis (M9 minimal media made with 0.1% rather than 0.5% lactose, total phosphate levels of 10 g/L). […]

[6] = system: beta-galactosidase; experiment: Recombinant beta-galactosidase colormetric assay (X-gal) in bacterial cells; assay type: cell-based; details: for effect on beta-galactosidase enzyme activity: 2% lactose minimal media
Procedure: A recombinant vector containing the beta-galactosidase gene (Promega's TA vector expressed from an SP6 promoter) can also be examined. Enzyme activity is detected via a colormetric assay. Cells are grown in minimal media made with 2% lactose rather than glucose for optimal induction of beta-galactosidase. After several (˜4-5) hrs bacterial cells are removed to assay for enzyme activity. To 0.5 ml of cells add 0.5 ml of 200 mM Tris-HCL, pH 7.5 and 5 ul of 1% SDS (sodium dodecyl sulfate). Then add 10 ul of IPTG (100 mM) and 20 ul of X-gal (50 mg/ml), mix and incubate at 37° C. […] In the presence of glucose which represses the enzyme, the activity is much lower but can be enhanced 10 fold by using a 50% ratio of thio-phosphate to phosphate.

[7] = system: bacteria; experiment: Soluble protein levels, biuret reagent, bacteria; assay type: cell-based; details: low ratios of thio-phosphate to phosphate (10-30%)
Procedure: (§4) At higher ratios a slight decline in growth appears to account for a reduction in total protein synthesis detected. To measure protein synthesis 4 ml of cells are pelleted washed in PBS and resuspended in lysozyme solution for bacteria. Cells are then pelleted again and washed in PBS to remove lysozyme. Cells are then lysed in 400 ul of 1% SDS and 0.2 N NaOH. The extract is then diluted in water to 2 ml and assayed using the biuret reagent (Gornall et al (1949) J. Biol. Chem. 177:751). Yeast are assayed without lysozyme.

[8] = system: yeast; experiment: Soluble protein levels, biuret reagent, yeast; assay type: cell-based; details: low ratios of thio-phosphate to phosphate (10-30%)
Procedure: as §4

[9] = system: Carassius auratus; experiment: Tolerance of fish kept in conditioned media with thio-phosphate; assay type: in vivo; details: up to 250 mg/L of thio-phosphate in conditioned media, two days
Procedure: (§5) Thio-phosphate can also be utilized by whole animals and/or complex tissues. Carassius auratus incorporates thio-phosphate into the DNA of intestinal cells; these cells are known to turnover in adults. Fish can be maintained in distilled water with NovAqua and AmQuel conditioners (U.S. Pat. No. 4,666,610). Goldfish flakes are also added for food. Normal phosphate levels in the aquarium are less than 1 mg/L (Hanna Phosphate Test Kit; Hanna Instruments). Fish are transferred to 100 ml of conditioned media with up to 250 mg/L of thio-phosphate added. […] Fresh media is prepared daily. Fish are sacrificed and DNA prepared from intestinal cells using DNAzol™ (Molecular Research Center Ohio). The DNA samples are then tested for resistance to DNase digestion. Samples are incubated in a 50 ul rxn with ˜lug of DNA and 0.5 units of DNase for 0, 5, 10, 15 min. at room temp. DNA from 250 mg/L thio-phosphate media is much more resistant than wildtype DNA or DNA from 25 mg/L thio-phosphate media. Normal DNA and 25 mg/L thio-phosphate treated DNA is digested after 5 min. while 250 mg/L thio-phosphate treated DNA persists beyond 15 min. of digestion (FIG. 3).

[10] = system: DNA of intestinal cells; experiment: DNase resistance of intestinal DNA from fish kept in thio-phosphate media; assay type: in vivo, Carassius auratus; details: 0.5 units DNase, room temp.
Procedure: as §5

[11] = system: Pichia canadensis; experiment: Growth in phosphate depleted YPD media with thio-phosphate/phosphate ratios; assay type: cell-based; details: phosphate levels ~1 g/L, full range of ratios (100% to 0%)
Procedure: as §1

[12] = system: S. cerevisiae; experiment: as above; assay type: cell-based; details: phosphate levels ~1 g/L, full range of ratios (100% to 0%)
Procedure: as §1

## [Na+].[Na+].[Na+].[O-]P([O-])([O-])=S [thio-phosphate, Na3SPO3.XH2O]
[1]; weight equivalent ratio, grown overnight, following cessation of growth, ratios 100-0 tested
  ratio of thio-phosphate to normal phosphate at which maximal synthesis occurs: ~10%
[1]; ~10% ratio, dilution assays
  increase of FLAG-BAP protein compared to normal media with an equivalent amount of phosphate: about ten fold
[2]
  stabilization of actin mRNA: significant stabilization
[3]; 10% ratio of thio-phosphate to phosphate
  increase of extracellular nuclease activity: two to three fold increase
[3]; ratios above 70%
  effect on extracellular nuclease activity: slightly inhibitory
[3]; ratios beyond 30%
  effect on extracellular nuclease activity: not stimulatory
[4]
  increase of lipase: less than two fold
[5]; 50% ratio, low lactose levels
  BAP activity elevated over controls: several fold
[5]; low lactose (0.1%) M9 minimal media, total phosphate 10 g/L
  optimal ratio of modified phosphate to phosphate for BAP enzyme activity: 50%
[6]; higher ratios (50-70%)
  effect on beta-galactosidase enzyme activity: recovers from inhibition
[6]; in the presence of glucose, 50% ratio of thio-phosphate to phosphate
  enhancement of beta-galactosidase activity: 10 fold
[6]; low ratios of thio-phosphate to phosphate (5-30%)
  effect on beta-galactosidase enzyme activity: inhibited
[7]
  soluble protein levels: not enhanced
[8]
  soluble protein levels: not enhanced
[9]
  adverse reactions in fish: No adverse reactions
[10]; 25 mg/L thio-phosphate media
  time after which DNA is digested by DNase: ≤ 5 min
[10]; 250 mg/L thio-phosphate media
  time DNA persists under DNase digestion: > 15 min
[11]
  growth: adequate growth
[12]
  growth: adequate growth
